Measurements from patent publication US20210283116A1, “METHODS OF TREATING ACUTE KIDNEY INJURY” (Mitobridge, Inc., priority 2016, published 2021).

Tests used:
[1] = system: rat model of acute kidney injury (ischemia reperfusion injury); test: Ischemia reperfusion injury rat model of acute kidney injury, Compound A intravenously; assay type: in vivo, Sprague-Dawley male rats
Experimental: Animals, surgery and dosing: Sprague-Dawley male rats approximately 280-300 g, with ad libitum access to standard feed and water were used in these experiments. Rats (n=8/group) were anesthetized with isoflurane and placed ventrally on a temperature controlled heated surgical platform. A skin incision was made on the dorsal surface, exposing both kidneys through flank incisions. Vascular clips were applied to both renal pedicles and occlusion lasted 45 minutes. After 45 min, the clips were removed, kidneys were monitored for successful reperfusion, and surgical sites were then sutured. The sham group (n=4 rats) was subjected to similar surgical procedures, except that the occluding clamps were not applied. Compound A was formulated as a fresh daily clear solution of the hydrate of the meglumine salt of Compound A (1.5 Molar equivalent of Compound A) in 5% dextrose. Compound A was dosed IV via tail vein at 3 mg/kg, 1 mg/kg or 0.3 mg/kg 4 hours after animals awoke from surgery and sham surgery and IRI control animals were similarly dosed with vehicle.
Blood collection: Twenty-four (24) hours after reperfusion, blood was collected in K2 EDTA tubes by retro-orbital bleeding from all groups under mild isoflurane anesthesia. Plasma was separated by centrifugation at 3000 rpm for 10 minutes at 4° C. Urine collection: all study animal groups were placed in metabolic cages immediately after surgery recovery and urine was collected for 24 or 48 hours. Urine volume was carefully measured and then was centrifuged at 3000 rpm for 10 min at 4° C. to remove sediments. Plasma and urine creatinine were analyzed using a fully automated clinical biochemistry analyzer (Siemens Dimension® Xpand® Plus Integrated Chemistry System). Urinary NGAL was analyzed using a BioPorto ELISA kit. Creatinine clearance was calculated as follows: […]
GraphPad Prism software, Version 6.05 was used for graphing and statistical testing. Creatinine was tested for normal distribution in all groups via a D'Agostino-Pearson omnibus normality test and a Shapiro-Wilk normality test. Statistical significance (p<0.05) is determined by an ordinary One-way ANOVA followed by Dunnett's multiple comparison using the […] as the control group. **p<0.01, ***p<0.001 and ****p<0.0001 vs. IR-Vehicle.

[2] = system: rat model of acute kidney injury (ischemia reperfusion injury); test: Ischemia reperfusion injury rat model of acute kidney injury, Compound B orally; assay type: in vivo, Sprague-Dawley male rats
Experimental: Animals, surgery and dosing: Sprague-Dawley male rats approximately 280-300 g, with ad libitum access to standard feed and water were used in these experiments. Rats (n=8/group) were anesthetized with isoflurane and placed ventrally on a temperature controlled heated surgical platform. A skin incision was made on the dorsal surface, exposing both kidneys through flank incisions. Vascular clips were applied to both renal pedicles and occlusion lasted 45 minutes. After 45 min, the clips were removed, kidneys were monitored for successful reperfusion, and surgical sites were sutured. The sham group (n=4 rats) was subjected to similar surgical procedures, except that the occluding clamps were not applied. Compound B was formulated as a fresh daily suspension in 0.25% sodium carboxymethyl-cellulose, 0.25% Tween-80 in purified water. Compound B was dosed orally at 30 mg/kg 4 hours after animals awoke from surgery and sham surgery and IRI control animals were similarly dosed with vehicle. Blood collection: Twenty-four (24) hours after reperfusion, blood was collected in K2 EDTA tubes by retro-orbital bleeding from all groups under mild isoflurane anesthesia. Plasma was separated by centrifugation at 3000 rpm for 10 minutes at 4° C. Urine collection: all study animal groups were placed in metabolic cages immediately after surgery recovery and urine was collected for 24 hours. Urine volume was carefully measured and then was centrifuged at 3000 rpm for 10 min at 4° C. to remove sediments. Plasma and urine creatinine were analyzed using a fully automated clinical biochemistry analyzer (Siemens Dimension® Xpand® Plus Integrated Chemistry System). Creatinine clearance was calculated as follows: […]
GraphPad Prism software, Version 6.05 was used for graphing and statistical testing. Data was tested for normal distribution in all groups via a D'Agostino-Pearson omnibus normality test and a Shapiro-Wilk normality test. […] Statistical significance is determined by p<0.05 of IRI-vehicle compared to compound treated groups. **p<0.01 and ***p<0.001 vs. IR-Vehicle. […]

SMILES	kidney function (creatinine clearance) ([1]; 0.3 mg/kg, 1 mg/kg or 3 mg/kg IV 4 hours after ischemia, 24 hours after kidney injury, vs. IR-Vehicle)	plasma creatinine ([1]; 0.3 mg/kg, 1 mg/kg or 3 mg/kg IV 4 hours after ischemia, 24 hours after reperfusion, vs. IR-Vehicle)	early kidney injury biomarker NGAL (urinary) ([1]; 0.3 mg/kg, 1 mg/kg or 3 mg/kg IV 4 hours after ischemia, 48 hours after kidney injury, vs. IR-Vehicle)	kidney injury ([1]; dosed IV 4 hours after ischemia, hydrate of meglumine salt in 5% dextrose)	plasma creatinine ([2]; 30 mg/kg orally 4 hours after ischemia, 24 hours after reperfusion, vs. IR-Vehicle)	kidney function (creatinine clearance) ([2]; 30 mg/kg orally 4 hours after ischemia, 24 hours urine collection, vs. IR-Vehicle)	kidney injury ([2]; 30 mg/kg orally, dosed 4 hours after ischemia)
Cc1cnc(-c2ccc(C(F)(F)F)nc2)n1Cc1ccccc1OCCC[C@@H](C)CC(=O)O [Compound A, (R)-3-methyl-6-(2-((5-methyl-2-(6-(trifluoromethyl)pyridin-3-yl)-1H-imidazol-1-yl)methyl)phenoxy)hexanoic acid]	improves kidney function	significantly reduces plasma creatinine	reduces the early kidney injury biomarker NGAL	reduces kidney injury			
Cc1cc(SCc2nn(-c3ccc(C(F)(F)F)cc3)nc2C)ccc1OCC(=O)O [Compound B]					reduces plasma creatinine	improves kidney function	reduces kidney injury
